Experimental data from PMC12072002, “Site-Directed Mutagenesis Increased the Catalytic Activity and Stability of Oenococcus oeni β-Glucosidase: Characterization of Enzymatic Properties and Exploration of Mechanisms” (International Journal of Molecular Sciences, 2025).
Like-named read-outs stand apart in the source and are kept apart here.

How the values were obtained:
Assay type in all cases: biochemical, Oenococcus oeni SD-2a
[1] = test system: wild-type enzyme (β-glucosidase BGL0224); experiment: Effects of metal ions and additives on enzyme activity (p-NPG hydrolysis, IC50); details: for effect on enzyme activity of the wild-type enzyme: in words; for IC50 / IC50 on Wild-Type Enzyme: metal ions and additives, Concentration 5 mM, optimum temperature and pH
Description: (§1) The method for the determination of the effects of different metal ions and additives on enzyme activity was referred to Zhou et al., with slight modifications. To determine the effects of metal ions and some additives on the BGLs’ activity, lyophilized powders of the wild-type and mutant BGLs were formulated into solutions with a final concentration of 10 mg/mL using 20 mM sodium phosphate buffer as well as 25 mM of p-NPG substrate solution and different concentrations (0.1 mM, 0.5 mM, 1.0 mM, 5.0 mM and 10 mM) of metal ion solutions (K^+, Na^+, Li^+, Ag^+, Mg^2+, Zn^2+, Ba^2+, Ca^2+, Cu^2+, Mn^2+, Fe^2+ and Fe^3+) and additive solutions (SDS, DTT, EDTA, TritonX-100 and Tween-80). The enzyme solutions (10 μL), p-NPG solution (490 μL) and different concentrations of additive solutions (500 μL) were mixed well. The reaction lasted for 30 min under the optimal reaction conditions of the enzyme. Then, 1mL 1 M Na2CO3 was added to terminate the reaction. The absorbance value of the reaction system was measured at 420 nm and the activity of the BGLs was calculated according to the standard curve. The IC50 (half of the maximum inhibitory concentration) of the reagents on BGL activity was calculated using a logistic function with Growth/Sigmoidal-type nonlinear fitting in Origin Pro 8.0.

[2] = test system: mutant III (β-glucosidase F133K); experiment: as above; details: for effect on enzyme activity of mutant III: in words; for IC50 / IC50 on Mutant III: metal ions and additives, Concentration 5 mM, optimum temperature and pH
Description: as §1

[3] = test system: mutant IV (β-glucosidase N181R); parameters: key to IC50 on Mutant IV: “-”represents no enzymatic activity; details: for effect on enzyme activity of mutant IV: in words
Description: The method for the determination of the effects of different metal ions and additives on enzyme activity was referred to Zhou et al., with slight modifications. […] The enzyme solutions (10 μL), p-NPG solution (490 μL) and different concentrations of additive solutions (500 μL) were mixed well. The reaction lasted for 30 min under the optimal reaction conditions of the enzyme. Then, 1mL 1 M Na2CO3 was added to terminate the reaction. The absorbance value of the reaction system was measured at 420 nm and the activity of the BGLs was calculated according to the standard curve. The IC50 (half of the maximum inhibitory concentration) of the reagents on BGL activity was calculated using a logistic function with Growth/Sigmoidal-type nonlinear fitting in Origin Pro 8.0.

[4] = target: mutant III (β-glucosidase F133K); experiment: Effects of metal ions and additives on enzyme activity (p-NPG hydrolysis, IC50); parameters: key: “-”represents no enzymatic activity; details: additive concentration 0.2%
[5] = target: wild-type enzyme (β-glucosidase BGL0224); experiment: as above; parameters: key: “-”represents no enzymatic activity; details: additive concentration 0.2%
[6] = metal ions and additives, Concentration 5 mM, optimum temperature and pH

| Compound | effect on enzyme activity of the wild-type enzyme ([1]; metal ion at 5 mM) | IC50 [1] [mM] | effect on enzyme activity of mutant III ([2]; metal ion at 5 mM) | IC50 [2] [mM] | effect on enzyme activity of mutant IV ([3]; metal ion at 5 mM) | IC50 [3, 6] [mM] | also measured |
| --- | --- | --- | --- | --- | --- | --- | --- |
| [Ag+] [Ag^+] | inhibitory effects | 7.43 | inhibitory effects | 3.03 | inhibitory effects | 2.93 |  |
| [Ba+2] [Ba^2+] | enhanced |  | enhanced |  | enhanced |  | IC50 on Wild-Type Enzyme [1]: Activator; IC50 on Mutant III [2]: Activator; IC50 on Mutant IV [3, 6]: Activator |
| [Ca+2] [Ca^2+] | inhibitory effects | 4.09 | inhibitory effects | 3.38 | inhibitory effects | 3.28 |  |
| [Cu+2] [Cu^2+] | inhibitory effects | 3.12 | inhibitory effects | 3.48 | inhibitory effects | 1.58 |  |
| O[C@@H](CS)[C@@H](O)CS [DTT] |  | 7.93 |  | 5.49 |  | 6.17 |  |
| O=C(O)CN(CCN(CC(=O)O)CC(=O)O)CC(=O)O [EDTA] |  | 6.41 |  | 6.89 |  | 7.16 |  |
| [Fe+2] [Fe^2+] | inhibitory effects | 2.83 | inhibitory effects | 3.96 | inhibitory effects | 4.43 |  |
| [K+] [K^+] | enhanced |  | enhanced |  |  | 2.42 | IC50 on Wild-Type Enzyme [1]: Activator; IC50 on Mutant III [2]: Activator; inhibition rate on mutant IV ([3]; metal ion at 5 mM): 85.02% |
| [Li+] [Li^+] | enhanced |  | enhanced |  | enhanced |  | IC50 on Wild-Type Enzyme [1]: Activator; IC50 on Mutant III [2]: Activator; IC50 on Mutant IV [3, 6]: Activator |
| [Mg+2] [Mg^2+] | inhibitory effects | 8.92 | inhibitory effects | 3.37 | inhibitory effects | 5.35 |  |
| [Mn+2] [Mn^2+] |  | 3.76 | promoted |  | promoted |  | inhibition of wild-type enzyme activity ([1]; metal ion at 5 mM): 76.51%; IC50 on Mutant III [2]: Activator; IC50 on Mutant IV [3, 6]: Activator |
| [Na+] [Na^+] | increased |  |  | 0.929 | increased |  | IC50 on Wild-Type Enzyme [1]: Activator; inhibition rate on mutant III ([2]; metal ion at 5 mM): 97.45%; IC50 on Mutant IV [3, 6]: Activator |
| CCCCCCCCCCCCOS(=O)(=O)[O-].[Na+] [SDS] |  | 7.89 |  | 6.72 |  | 6.29 |  |
| [Zn+2] [Zn^2+] | inhibitory effects | 3.87 | inhibitory effects | 3.19 | inhibitory effects | 2.94 |  |
| Triton X-100 [Triton-X100] |  |  |  |  |  |  | IC50 on Mutant III [4]: -; IC50 on Wild-Type Enzyme [5]: -; IC50 on Mutant IV ([3]; additive concentration 0.2%): - |
| Tween-80 |  |  |  |  |  |  | IC50 on Mutant III [4]: -; IC50 on Wild-Type Enzyme [5]: -; IC50 on Mutant IV ([3]; additive concentration 0.2%): - |
